Each structure is given as a SMILES string. Where a name gives a salt, the structure may show the parent alone.

The results in this text go back to patent US12421211B2, “Heterocyclic compounds” (Hoffmann-La Roche Inc., priority 2021, dated 2025).

The test system of one assay is Acinetobacter baumannii ATCC17961. The assay is described as follows: Antimicrobial susceptibility testing: 90% growth inhibitory concentration (IC90) determination. The settings on record: Acinetobacter baumannii, ATCC17961, 16 h, 90% growth inhibitory concentration, Acinetobacter baumannii ATCC17961, Iso-Sensitest broth, OD 600 nm over 16 h; read-out: ATCC 17961 IC90. The format is cell-based. In outline:
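A. baumannii ATCC17961 at ~5×10^5 CFU/ml in Iso-Sensitest broth exposed to 10-point twofold dilutions (e.g. 50–0.097 μM final), 35±2° C. OD600 read every 20 minutes over 16h; IC50 and IC90 derived from inhibition during logarithmic growth.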
Regarding `COCCn1ncc(-c2ccc(-c3cnc(C(=O)Nc4ccc(C(=O)N5CCN(C(=O)C6CC[N+](CC(=O)O)(CC7CNC7)CC6)CC5)c(Cl)c4)n3C)c(F)c2F)c1C` (stereo not drawn) [Example B20, 2-[1-(azetidin-3-ylmethyl)-4-[4-[2-chloro-4-[[5-[2,3-difluoro-4-[1-(2-methoxyethyl)-5-methyl-pyrazol-4-yl]phenyl]-1-methyl-imidazole-2-carbonyl]amino]benzoyl]piperazine-1-carbonyl]piperidin-1-ium-1-yl]acetic acid; formic acid; formate], the IC90 turned out to be 220 nM.
Turning to `Cc1nn(-c2ccccn2)cc1-c1ccc(-c2cnc(C(=O)Nc3ccc(C(=O)N4CCN(C(=O)C5CC[N+](C)(C)CC5)CC4)c(Cl)c3)n2C)c(F)c1F` [Example F50, N-[3-chloro-4-[4-(1,1-dimethylpiperidin-1-ium-4-carbonyl)piperazine-1-carbonyl]phenyl]-5-[2,3-difluoro-4-[3-methyl-1-(2-pyridyl)pyrazol-4-yl]phenyl]-1-methyl-imidazole-2-carboxamide; formate], the IC90 was 1100 nM.
As for `Cc1nn(CCCC#N)c(C)c1-c1ccc(-c2cnc(C(=O)Nc3ccc(C(=O)N4CCN(C(=O)[C@@H]5C[C@@H](O)C[N+]5(C)C)CC4)c(Cl)c3)n2C)c(F)c1F` [Example F58, N-[3-chloro-4-[4-[(2S,4R)-4-hydroxy-1,1-dimethyl-pyrrolidin-1-ium-2-carbonyl]piperazine-1-carbonyl]phenyl]-5-[4-[1-(3-cyanopropyl)-3,5-dimethyl-pyrazol-4-yl]-2,3-difluoro-phenyl]-1-methyl-imidazole-2-carboxamide; formate], the IC90 is 480 nM.
The same measure, in the same setting: the result for `Cc1nn(CC(=O)Nc2ncccn2)cc1-c1ccc(-c2cnc(C(=O)Nc3ccc(C(=O)N4CCN(C(=O)C5CC[N+](C)(C)CC5)CC4)c(Cl)c3)n2C)c(F)c1F` [Example G16, N-[3-chloro-4-[4-(1,1-dimethylpiperidin-1-ium-4-carbonyl)piperazine-1-carbonyl]phenyl]-5-[2,3-difluoro-4-[3-methyl-1-[2-oxo-2-(pyrimidin-2-ylamino)ethyl]pyrazol-4-yl]phenyl]-1-methyl-imidazole-2-carboxamide; formate] reads 1100 nM; that for `COc1ccc(-c2[nH]ncc2-c2ccc(-c3cnc(C(=O)Nc4ccc(C(=O)N5CCN(C(=O)C6CC[N+](C)(C)CC6)CC5)c(Cl)c4)n3C)c(F)n2)cc1` [Example F59, N-[3-chloro-4-[4-(1,1-dimethylpiperidin-1-ium-4-carbonyl)piperazine-1-carbonyl]phenyl]-5-[2-fluoro-6-[5-(4-methoxyphenyl)-1H-pyrazol-4-yl]-3-pyridyl]-1-methyl-imidazole-2-carboxamide; formate], 750 nM; that for `CC(CO)Cn1cc(-c2ccc(-c3cnc(C(=O)Nc4ccc(C(=O)N5CCN(C(=O)C6CC[N+](C)(C)CC6)CC5)c(Cl)c4)n3C)c(F)c2F)c(C(F)(F)F)n1` (stereo not drawn) [Example F7, N-[3-chloro-4-[4-(1,1-dimethylpiperidin-1-ium-4-carbonyl)piperazine-1-carbonyl]phenyl]-5-[2,3-difluoro-4-[1-(3-hydroxy-2-methyl-propyl)-3-(trifluoro-methyl)pyrazol-4-yl]phenyl]-1-methyl-imidazole-2-carboxamide; formate], 520 nM.
On the same count and under the same terms, to `COCCn1ncc(-c2ccc(-c3cnc(C(=O)Nc4ccc(C(=O)N5CCN(C(=O)C6(N)CC[N+](C)(C)CC6)CC5)c(Cl)c4)n3C)c(F)c2F)c1C` [Example D20, N-[4-[4-(4-amino-1,1-dimethyl-piperidin-1-ium-4-carbonyl)piperazine-1-carbonyl]-3-chloro-phenyl]-5-[2,3-difluoro-4-[1-(2-methoxyethyl)-5-methyl-pyrazol-4-yl]phenyl]-1-methyl-imidazole-2-carboxamide; formate] belongs 64 nM; to `Cc1nn(CCOCCN)c(C)c1-c1ccc(-c2cnc(C(=O)Nc3ccc(C(=O)N4CCN(C(=O)[C@@H]5C[C@@H](O)C[N+]5(C)C)CC4)c(Cl)c3)n2C)c(F)c1F` [Example K1, 5-[4-[1-[2-(2-aminoethoxy)ethyl]-3,5-dimethyl-pyrazol-4-yl]-2,3-difluoro-phenyl]-N-[3-chloro-4-[4-[(2S,4R)-4-hydroxy-1,1-dimethyl-pyrrolidin-1-ium-2-carbonyl]piperazine-1-carbonyl]phenyl]-1-methyl-imidazole-2-carboxamide; 2,2,2-trifluoroacetate], 600 nM; to `COCCn1ncc(-c2ccc(-c3cnc(C(=O)Nc4ccc(C(=O)N[C@H]5[C@@H]6CN(C(=O)N[C@@H]7CNC[C@H]7O)C[C@@H]65)c(Cl)c4)n3C)c(F)c2F)c1C` [Example E22, (1S,5R)-6-[[2-chloro-4-[[5-[2,3-difluoro-4-[1-(2-methoxyethyl)-5-methyl-pyrazol-4-yl]phenyl]-1-methyl-imidazole-2-carbonyl]amino]benzoyl]amino]-N-[(3R,4R)-4-hydroxypyrrolidin-3-yl]-3-azabicyclo[3.1.0] hexane-3-carboxamide], 59 nM.
Consider `COCCn1ncc(-c2ccc(-c3cnc(C(=O)Nc4ccc(C(=O)N5CCN(C(=O)C6CCNCC6O)CC5)c(Cl)c4)n3C)c(F)c2F)c1C` (stereo not drawn) [Example D25, N-[3-chloro-4-[4-(3-hydroxypiperidine-4-carbonyl)piperazine-1-carbonyl]phenyl]-5-[2,3-difluoro-4-[1-(2-methoxyethyl)-5-methyl-pyrazol-4-yl]phenyl]-1-methyl-imidazole-2-carboxamide; formic acid], for which the IC90 amounted to 51 nM.
For the compound `COCCCn1cc(-c2ccc(-c3cnc(C(=O)Nc4ccc(C(=O)N5CCN(C(=O)C6CC[N+](C)(C)CC6)CC5)c(Cl)c4)n3C)c(F)c2F)c(C(F)(F)F)n1` [Example F38, N-[3-chloro-4-[4-(1,1-dimethylpiperidin-1-ium-4-carbonyl)piperazine-1-carbonyl]phenyl]-5-[2,3-difluoro-4-[1-(3-methoxypropyl)-3-(trifluoromethyl)pyrazol-4-yl]phenyl]-1-methyl-imidazole-2-carboxamide; formate], the IC90 is 760 nM.
As for `Cc1n[nH]cc1-c1ccc(-c2cnc(C(=O)Nc3ccc(C(=O)N4CCN(C(=O)C5CC[N+](C)(C)CC5)CC4)c(Cl)c3)n2C)c(F)c1F` [Example D16, N-[3-chloro-4-[4-(1,1-dimethylpiperidin-1-ium-4-carbonyl)piperazine-1-carbonyl]phenyl]-5-[2,3-difluoro-4-(3-methyl-1H-pyrazol-4-yl)phenyl]-1-methyl-imidazole-2-carboxamide; formate], the IC90 came out at 150 nM.
The same measure, in the same setting: the result for `COCCn1cc(-c2ccc(-c3cnc(C(=O)Nc4ccc(C(=O)N5CCN(C(=O)[C@H]6C[C@@H](O)C[N+]6(C)C)CC5)c(Cl)c4)n3C)c(F)c2F)c(C)n1` [Example D9, N-[3-chloro-4-[4-[(2R,4R)-4-hydroxy-1,1-dimethyl-pyrrolidin-1-ium-2-carbonyl]piperazine-1-carbonyl]phenyl]-5-[2,3-difluoro-4-[1-(2-methoxyethyl)-3-methyl-pyrazol-4-yl]phenyl]-1-methyl-imidazole-2-carboxamide; formate] reads 300 nM.
Same read-out and setting: the result for `Cc1nn(CC(=O)NC(C)(C)C)cc1-c1ccc(-c2cnc(C(=O)Nc3ccc(C(=O)N4CCN(C(=O)C5CC[N+](C)(C)CC5)CC4)c(Cl)c3)n2C)c(F)c1F` [Example G2, 5-[4-[1-[2-(tert-butylamino)-2-oxo-ethyl]-3-methyl-pyrazol-4-yl]-2,3-difluoro-phenyl]-N-[3-chloro-4-[4-(1,1-dimethylpiperidin-1-ium-4-carbonyl)piperazine-1-carbonyl]phenyl]-1-methyl-imidazole-2-carboxamide; formate] reads 320 nM.
`COCCn1ncc(-c2ccc(-c3cnc(C(=O)Nc4ccc(C(=O)N5CCN(C(=O)C6CC[N+](C)(C)CC6)CC5)c(Cl)c4)n3C)c(Cl)c2F)c1C` [Example F2, N-[3-chloro-4-[4-(1,1-dimethylpiperidin-1-ium-4-carbonyl)piperazine-1-carbonyl]phenyl]-5-[2-chloro-3-fluoro-4-[1-(2-methoxyethyl)-5-methyl-pyrazol-4-yl]phenyl]-1-methyl-imidazole-2-carboxamide; formate]: the IC90 was 65 nM.

The assay is the same for the next values; noted with them: Acinetobacter baumannii, ATCC17961, 16 h, read-out: ATCC 17961 IC90.
As for `COCCn1ncc(-c2ccc(-c3cnc(C(=O)Nc4ccc(C(=O)NCC5CCN(C(=O)C[N+](C)(C)C)CC5)c(Cl)c4)n3C)c(F)c2F)c1C` [Example A9, [2-[4-[[[2-chloro-4-[[5-[2,3-difluoro-4-[1-(2-methoxyethyl)-5-methyl-pyrazol-4-yl]phenyl]-1-methyl-imidazole-2-carbonyl]amino]benzoyl]amino]methyl]-1-piperidyl]-2-oxo-ethyl]-trimethyl-ammonium; 2,2,2-trifluoroacetate], the IC90 was 160 nM.
With `Cc1nn(CC(F)F)cc1-c1ccc(-c2cnc(C(=O)Nc3ccc(C(=O)N4CCN(C(=O)C5CC[N+](C)(CC(N)=O)CC5)CC4)c(Cl)c3)n2C)c(F)c1F` (stereo not drawn) [Example B7, N-[4-[4-[1-(2-amino-2-oxo-ethyl)-1-methyl-piperidin-1-ium-4-carbonyl]piperazine-1-carbonyl]-3-chloro-phenyl]-5-[4-[1-(2,2-difluoroethyl)-3-methyl-pyrazol-4-yl]-2,3-difluoro-phenyl]-1-methyl-imidazole-2-carboxamide; formate], the IC90 is 170 nM.
For `COCCn1ncc(-c2ccc(-c3cnc(C(=O)Nc4ccc(C(=O)N5CCN(C(=O)C[N+]6(C)CCC(O)C6)CC5)c(Cl)c4)n3C)c(F)c2F)c1C` (stereo not drawn) [Example C1, N-[3-chloro-4-[4-[2-(3-hydroxy-1-methyl-pyrrolidin-1-ium-1-yl)acetyl]piperazine-1-carbonyl]phenyl]-5-[2,3-difluoro-4-[1-(2-methoxyethyl)-5-methyl-pyrazol-4-yl]phenyl]-1-methyl-imidazole-2-carboxamide; formate], the IC90 came to 45 nM.
